For one data set, the target named is Galactokinase (Homo sapiens, UniProt P51570). The data set can be described thus: Inhibition of recombinant human GALK1 using galactose as substrate incubated for 1 hrs in the presence of ATP by Kinase-Glo reagent based luminescence assay. For orientation: Kinase-Glo measures the ATP left after a reaction by luminescence.
The next data set is described as follows: physchem. The following applies: phosphate buffer, pH 7.4.
Data set [1] can be described thus: Metabolic stability in mouse liver microsome assessed as half life. Format: ADME. The following applies: microsomes. In general terms: Liver microsomes are vesicles of endoplasmic reticulum, rich in cytochrome P450 enzymes.
A short description of data set [2]: Metabolic stability in human liver microsomes assessed as half life. Format: ADME, Microsome.
Data set [3] can be described thus: Permeability of the compound at pH 7.4 measured after 30 mins by PAMPA based LC/MS analysis. Format: ADME. Particulars: PAMPA, pH 7.4, read-out: permeability.

Galactokinase, sequence (P51570 whole entry): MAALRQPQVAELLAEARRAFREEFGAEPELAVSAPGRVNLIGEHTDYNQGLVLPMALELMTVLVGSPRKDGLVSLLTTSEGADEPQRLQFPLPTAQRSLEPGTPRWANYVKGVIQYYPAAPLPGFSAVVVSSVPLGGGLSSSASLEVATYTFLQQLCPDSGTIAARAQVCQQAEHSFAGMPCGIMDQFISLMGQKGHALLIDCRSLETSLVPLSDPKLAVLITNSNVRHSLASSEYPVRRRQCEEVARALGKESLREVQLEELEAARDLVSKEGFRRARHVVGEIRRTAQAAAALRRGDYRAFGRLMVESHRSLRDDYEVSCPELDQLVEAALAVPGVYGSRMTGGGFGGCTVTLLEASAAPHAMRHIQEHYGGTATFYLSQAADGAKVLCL
Description for physchem: Kinetic solubility of the compound in phosphate buffer at pH 7.4 at 150 uM incubated for 6 hrs by shake-flask method

For the compound `CC1=C(C(=O)Nc2cccnc2)C(c2ccccc2Cl)N=C(Nc2nc3ccccc3o2)N1` (centres undefined), the IC50 at Galactokinase (read-out: pIC50 (converted)) was 6.61 µM.

With `CC1=C(C(=O)Nc2cc(C(=O)O)ccn2)C(c2ccccc2Cl)N=C(Nc2nc3cccc(F)c3o2)N1` (centres undefined), on Galactokinase (read-out: pIC50 (converted)), the IC50 was 1.78 µM.

As for `CC1=C(C(=O)NCc2cnn(C)c2)[C@@H](c2ccc(C)cc2Cl)N=C(Nc2nc3cccc(N)c3o2)N1`, the IC50 on Galactokinase (read-out: pIC50 (converted)) was 11.7 µM.

On to `CC1=C(C(=O)Nc2cc(C(=O)O)ccn2)C(c2ccc(Cl)cc2Cl)N=C(Nc2nc3ccc(F)cc3o2)N1` (centres undefined), for which the IC50 at Galactokinase (read-out: pIC50 (converted)) was 1.05 µM.

Regarding `CC1=C(C(=O)NCc2cccc(C(=O)O)c2)C(c2ccccc2Cl)N=C(Nc2nc3ccccc3o2)N1` (centres undefined), the IC50 at Galactokinase (read-out: pIC50 (converted)) was 9.33 µM.

Turning to `CC1=C(C(=O)NCc2ccc(C(=O)O)cc2)C(c2ccccc2Cl)N=C(Nc2nc3ccccc3o2)N1` (centres undefined), the IC50 at Galactokinase (read-out: pIC50 (converted)) was 3.72 µM.

Turning to `CC1=C(C(=O)Nc2cc(C(=O)O)ccn2)C(c2ccccc2Cl)N=C(Nc2nc3c(N)cccc3o2)N1` (centres undefined), at Galactokinase (read-out: pIC50 (converted)), the IC50 was 19.5 µM.

On to `CC1=C(C(=O)Nc2cc(C(=O)O)ccn2)C(c2ccc(F)cc2Cl)N=C(Nc2nc3ccc(F)cc3o2)N1` (centres undefined), for which, at Galactokinase (read-out: pIC50 (converted)), the IC50 was 0.891 µM.

On to `CC1=C(C(=O)Nc2cccc(CO)c2)C(c2ccccc2Cl)N=C(Nc2nc3ccccc3o2)N1` (centres undefined), for which the IC50 at Galactokinase (read-out: pIC50 (converted)) is 4.17 µM.

With `COc1ccc2oc(NC3=NC(c4ccccc4Cl)C(C(=O)Nc4cc(C(=O)O)ccn4)=C(C)N3)nc2c1` (centres undefined), the IC50 on Galactokinase (read-out: pIC50 (converted)) was 6.61 µM.

Consider `COc1ccc2nc(NC3=NC(c4ccccc4Cl)C(C(=O)Nc4cc(C(=O)O)ccn4)=C(C)N3)oc2c1` (centres undefined), for which the IC50 on Galactokinase (read-out: pIC50 (converted)) was 19.5 µM.

As for `CCn1cc(CNC(=O)C2=C(C)NC(Nc3nc4ccc(F)c(N)c4o3)=NC2c2ccc(C)cc2Cl)cn1` (racemic), the solubility (kinetic) (as a rule, the concentration staying in solution when a stock, usually in DMSO, is diluted into the medium) at 6 h, 150 µM in “physchem” was below 1 µg/mL. Besides, at Galactokinase (read-out: IC50), the IC50 was 0.048 µM. For the same compound, the values for the t1/2 in data set [1] and in data set [2] were 14 min and 8 min, respectively. Besides, the Papp at 0.5 h in data set [3] is 410 ×10⁻⁶ cm/s.

For `CC1=C(C(=O)Nc2cc(C(=O)O)ccn2)C(c2ccccc2Cl)N=C(Nc2nc3cccc(N)c3o2)N1` (centres undefined), at Galactokinase (read-out: pIC50 (converted)), the IC50 is 0.234 µM.

Consider `CC1=C(C(=O)NCc2cccc(CO)c2)C(c2ccccc2Cl)N=C(Nc2nc3ccccc3o2)N1` (centres undefined), for which, at Galactokinase (read-out: pIC50 (converted)), the IC50 was 4.68 µM.

As for `CC1=C(C(=O)Nc2cccc(F)c2)C(c2ccccc2Cl)N=C(Nc2nc3ccccc3o2)N1` (centres undefined), at Galactokinase (read-out: pIC50 (converted)), the IC50 is 6.61 µM.

`CC1=C(C(=O)Nc2cc(C(=O)O)ccn2)C(c2ccc(N3CCOCC3)cc2Cl)N=C(Nc2nc3ccc(F)cc3o2)N1` (centres undefined): the IC50 on Galactokinase (read-out: pIC50 (converted)) was 0.447 µM.

As for `CC1=C(C(=O)Nc2nncs2)C(c2ccccc2Cl)N=C(Nc2nc3ccccc3o2)N1` (centres undefined), the results for the IC50 at Galactokinase (read-out: IC50) and on Galactokinase (read-out: pIC50 (converted)) were 3.43 µM and 3.72 µM, respectively.

With `CC1=C(C(=O)Nc2cc(C(=O)O)ccn2)C(c2ccccc2Cl)N=C(Nc2nc3cc(N)ccc3o2)N1` (centres undefined), at Galactokinase (read-out: pIC50 (converted)), the IC50 was 7.41 µM.

With `CC1=C(C(=O)Nc2cc(C(=O)O)ccn2)C(c2ccccc2Cl)N=C(Nc2nc3cc(Cl)ccc3o2)N1` (centres undefined), on Galactokinase (read-out: pIC50 (converted)), the IC50 is 2.63 µM.
